Data published in patent US11207313B2, “Pharmaceutical composition” (Novartis AG, priority 2017, dated 2021).

Columns and labels:
Type in all cases: physicochemical
[1] = Biopharmaceutics classification and water solubility statement
Excerpt: The design of a pharmaceutical composition, a pharmaceutical dosage form, as well as a commercially viable process to prepare the pharmaceutical composition, for a non-bile FXR agonist, such as 2-[(1R,3R,5S)-3-({5-cyclopropyl-3-[2-(trifluoromethoxy)phenyl]-1,2-oxazol-4-yl}methoxy)-8-azabicyclo[3.2.1]octan-8-yl]-4-fluoro-1,3-benzothiazole-6-carboxylic acid, or a pharmaceutically acceptable salt thereof, is especially challenging. […] For example, due to its very high potency a low dosage is needed, generating unwanted formulation issues such as content uniformity, and additional handling restrictions on a large manufacturing scale. […] Accordingly, a suitable and robust solid pharmaceutical composition overcoming the above problems needs to be developed.

[2] = Solubility of Compound A in formulations and precipitation on storage at room temperature
[3] = Precipitation of Compound A under dispersion in pH 6.5 buffer (microscope); conditions: room temperature, after at least 6 hours, all developed formulations
Excerpt: Then, the precipitation of Compound A in each formulation was controlled by microscope under dispersion in pH 6.5 buffer at room temperature.

In the case of O=C(O)c1cc(F)c2nc(N3C4CCC3CC(OCc3c(-c5ccccc5OC(F)(F)F)noc3C3CC3)C4)sc2c1 [Compound A, 2-[(1R,3R,5S)-3-({5-cyclopropyl-3-[2-(trifluoromethoxy)phenyl]-1,2-oxazol-4-yl}methoxy)-8-azabicyclo[3.2.1]octan-8-yl]-4-fluoro-1,3-benzothiazole-6-carboxylic acid], the “Biopharmaceutics classification system class” value [1] is reported as “class IV”, the Water solubility [1] is reported as “low water solubility” and the Precipitation after storage ([2]; 7 days storage at room temperature, all formulations) is reported as “no precipitation was observed”. The “Solubility of Compound A in formulations” value ([2]; all formulations of Tables 1 to 3 combined with Compound A) was “fully soluble” and the “Precipitation of Compound A under dispersion” value [3] was “No precipitation”.
